# Experimental data taken from patent US20190106454A1, “COMPOUNDS LINKED WITH A SACCHARIDE METAL COMPLEX AND USES THEREOF” (FRED HUTCHINSON CANCER RESEARCH CENTER, priority 2016, published 2019).
# “Also recorded” adds a separate entry of the source.
# Assays:
# renal injury in rats = settings: cited from earlier work
# [1] = tested on: maleate-induced AKI in mice; experiment: Maleate model of AKI; assay type: in vivo; settings: IV pre-treatment 18 hrs before IP Na maleate 800 mg/Kg, read 18 hrs post maleate
# Text: (§1) Methods. Male CD-1 mice (25-40 grams) Charles River, Wilmington, Mass.) were used for all experiments. They were housed under standard vivarium conditions with free food and water access. All experiments were approved by the Fred Hutchinson Cancer Research Center IACUC in accordance with NIH guidelines.
# Effects of Fe sucrose (FeS)/tin protoporphyrin (SnPP) on AKI severity. Maleate model of AKI. When injected into rodents, maleate undergoes relatively selective proximal tubule cell uptake via organic anion transporters. Once intracellular accumulation occurs, maleate is a preferred substrate for succinyl-CoA:3-oxoacid CoA transferase. […] Ample levels of CoA are essential for fatty acid “activation”, allowing for their subsequent metabolism through the Krebs cycle, yielding ATP. In the absence of this process, proximal tubule ATP depletion and cell injury result. Additionally, maleate conjugates the sulfhydryl group of glutathione (GSH), culminating in GSH depletion and potential oxidant tubular stress.
# The following experiment tested whether FeS, SnPP or combined FeS+SnPP can mitigate this form of acute kidney injury (AKI). Twenty seven mice were subjected to 200 μL IV tail injections of one of the following: 1) vehicle (phosphate buffered saline, PBS; n, 10); 2) 1 mg FeS (American Regent (Shirley, N.Y.; n, 3); 3) 1 μmole SnPP (Frontier Scientific, Logan, Utah; n 7), or FeS+SnPP, n, 7). Eighteen hrs later, all mice received an IP injection of Na maleate (800 mg/Kg; in 500 ul of PBS). Eighteen hrs later, the mice were deeply anesthetized with pentobarbital (50 mg/Kg IP), the abdominal cavities were opened, and blood samples were obtained from the abdominal vena cava. The severity of kidney injury was assessed by determining plasma blood urea nitrogen (BUN) and plasma creatinine (PCr) concentrations.
# Maleate model of AKI. Mice received tail vein injections of either combination of FeS+B12 or vehicle (n, 6 per group). Eighteen hrs later they received IP maleate injections, as noted above. The severity of AKI was determined 18 hrs post maleate injection by terminal BUN and PCr assessments.
# Ferritin heavy (Fhc) = experiment: Ferritin heavy chain Western blotting of renal cortex; assay type: in vivo, mice; settings: 18 hr post treatment, Western blot band densitometry
# Description: Ferritin heavy (Fhc) expression in renal cortex. HO-1 activity leads to increased Fhc expression. […] Because Fe sucrose also induces Fhc expression, the potential impact of SnPP treatment on this response was assessed (18 hrs post 1 mg FeS±concomitant SnPP treatment (n, 4 each)).
# heme oxygenase 1 (HO-1) [2] = experiment: Induction of HO-1 mRNA (RT-PCR) and protein (ELISA) in renal cortex and plasma; assay type: in vivo, mice; settings: for renal cortical HO-1 mRNA induction / increase in renal cortical HO-1 levels over baseline: 1 umole; for renal cortical HO-1 mRNA induction: RT-PCR (FIG. 11); for renal cortical HO-1 protein levels / increase in renal cortical HO-1 levels over baseline: ELISA
# Text: as §1
# Effects of FeS, SnPP, and B12 on renal cortical induction of heme oxygenase 1 (HO-1). The following experiments assessed the effects of FeS, SnPP, and B12 on the possible induction of the cytoprotective protein HO-1. To this end, mice were injected with each of these agents, as noted above. Either 4 or 18 hrs later, they were anesthetized and the kidneys were removed through a midline abdominal incision. The renal cortices were dissected on ice and then extracted for protein and mRNA. The samples were then assayed for HO-1 protein by ELISA, and HO-1 mRNA by RT-PCR, factored by GAPDH levels. Five normal mice provided control values. […]
# haptoglobin = experiment: Induction of haptoglobin mRNA and protein in renal cortex and plasma; assay type: in vivo, mice; settings: 1 umole; for renal cortical haptoglobin mRNA induction: 4 hrs post injection, RT-PCR (FIG. 11)
# Description: MesP up-regulates Nrf2 sensitive genes. Mice are injected MesP (0.1-2.5 umoles/mouse) or with a MesP vehicle. At either 4 or 18 hrs, the mice are deeply anesthetized with pentobarbital and the kidneys are removed through a midline abdominal incision. The renal cortices are dissected on ice, extracted for protein and mRNA, and assayed for HO-1 and haptoglobin protein and mRNA levels by ELISA and competitive RT-PCR, respectively. In this regard, both HO-1 and haptoglobin are Nrf2 sensitive genes. An increase in HO-1 and haptoglobin mRNA and protein levels at 4 hrs and 18 hrs post MesP administration, respectively, is measured to confirm MesP, like SnPP, induces Nrf2 signaling.
# [3] = tested on: kidney dysfunction in glycerol model rhabdomyolysis; settings: blocking HO with competitive inhibitor; cited from earlier work
# [4] = tested on: renal ischemia-reperfusion (IRI) induced AKI in mice; experiment: Renal ischemic-reperfusion injury (IRI) model of AKI; assay type: in vivo; settings: 1 umole 18 hrs before 22 min bilateral ischemic injury
# Description: as §1
# Renal ischemic—reperfusion injury (IRI) model of AKI. The following experiment assessed whether combination FeS+SnPP can mitigate the renal artery occlusion model of AKI. Mice received 200 μl tail vein injections of either PBS (n, 9) or FeS+SnPP (n, 8), as noted above. Eighteen hrs later, the mice were deeply anesthetized with pentobarbital (40-50 mg/Kg IP), the abdominal cavities were opened, the renal pedicles were identified and both were occluded with microvascular clamps. Body temperature was maintained at 36-37° C. throughout. Following 22 minutes of bilateral renal ischemia, the clamps were removed, uniform reperfusion was visually confirmed by the reappearance of a normal renal color (loss of tissue cyanosis), and then the abdominal cavities were closed in two layers with silk suture. […] The severity of renal injury was determined by BUN and PCr concentrations.
# Protection against acute kidney injury. […] AKI severity are determined by degrees of BUN and plasma creatinine increases.
# heme oxygenase 1 (HO-1) [5] = experiment: Induction of HO-1 mRNA (RT-PCR) and protein (ELISA) in renal cortex and plasma; assay type: in vivo, mice; settings: 1 umole, 18 hrs post injection
compound,measurement,setting,value
"C=Cc1c2[n-]c(c1C)/C=c1\[n-]/c(c(C)c1C=C)=C\c1[n-]c(c(CCC(=O)O)c1C)/C=c1\[n-]c(c(C)c1CCC(=O)O)=C2.[Sn+4] [SnPP, tin protoporphyrin]",fractional excretion of sodium,"renal injury in rats; day 2 after cisplatin, rats",increased
same,renal blood flow rates,"renal injury in rats; day 2 after cisplatin, rats",reduced
same,renal vascular resistance,"renal injury in rats; day 2 after cisplatin, rats",increased
same,inulin clearances,renal injury in rats; day 5,lower
same,serum creatinine values,renal injury in rats; days 3 through 5,higher
same,renal injury,renal injury in rats; pretreatment,exacerbated renal injury
same,severity of renal injury (BUN and PCr),[1],Neither SnPP alone nor FeS alone significantly altered the severity of renal injury
same,severity of renal injury (BUN and PCr),[1]; listed as Sn-protoporphyrin,Neither Sn-protoporphyrin alone nor iron-sucrose alone significantly altered the severity of renal injury
same,increase in Fhc expression over control values,Ferritin heavy (Fhc),24%
same,renal cortical HO-1 mRNA induction,heme oxygenase 1 (HO-1) [2]; 4 hrs post injection,raised
same,renal cortical haptoglobin mRNA induction,haptoglobin,raised
same,kidney dysfunction,[3],exacerbated kidney dysfunction
Fe sucrose [FeS],severity of renal injury (BUN and PCr),[1],Neither SnPP alone nor FeS alone significantly altered the severity of renal injury
same,severity of renal injury (BUN and PCr),[1]; listed as iron-sucrose,Neither Sn-protoporphyrin alone nor iron-sucrose alone significantly altered the severity of renal injury
same,increase in Fhc expression over control values,Ferritin heavy (Fhc),1-4%
same,renal cortical HO-1 protein levels,heme oxygenase 1 (HO-1) [2]; 4 hrs post IV injection,marked HO-1 protein increases
same,renal cortical HO-1 protein levels,heme oxygenase 1 (HO-1) [2]; 18 hrs post IV injection,remained elevated
same,renal cortical HO-1 protein levels,"heme oxygenase 1 (HO-1) [2]; 18 hrs post IV injection, listed as iron-sucrose",persists; also recorded: remained elevated
cyanocobalamin [B12],renal cortical HO-1 protein levels,heme oxygenase 1 (HO-1) [2]; 4 hrs post IV injection,marked HO-1 protein increases
same,renal cortical HO-1 protein levels,heme oxygenase 1 (HO-1) [2]; 18 hrs post IV injection,persists
tin mesoporphyrin [SnMeP],increase in renal cortical HO-1 levels over baseline,heme oxygenase 1 (HO-1) [2]; 4 hrs post injection,3 fold
same,renal cortical HO-1 mRNA induction,heme oxygenase 1 (HO-1) [2]; 4 hrs post injection,raised
same,increase in renal cortical HO-1 levels over baseline,heme oxygenase 1 (HO-1) [2]; 18 hrs post injection,5 fold
same,ischemic damage (BUN and plasma creatinine concentrations),[4],lessening of ischemic damage
same,plasma haptoglobin levels,haptoglobin; 4 and 18 hrs post injection,stepwise increases
same,renal cortical haptoglobin levels,haptoglobin; 4 and 18 hrs post injection,stepwise increases
same,renal cortical haptoglobin mRNA induction,haptoglobin,raised
same,rise in plasma HO-1 levels,heme oxygenase 1 (HO-1) [5],15 fold
